These results are taken from paper PMC7108740, “Exploring the molecular structures that confer ligand selectivity for galanin type II and III receptors” (PLoS ONE, 2020).

A word on the EC50: it is the concentration needed to bring the measured effect to its halfway point.

Assay [1] concerns the target T1, GALR3 double mutant L^100F, Y^103F (Homo sapiens, UniProt O60755, L100F/Y103F).
T1 construct: expressed in transfected cells; host or cells: HEK293 cells stably expressing Gqi
T1 sequence (O60755 1-368 L100F/Y103F): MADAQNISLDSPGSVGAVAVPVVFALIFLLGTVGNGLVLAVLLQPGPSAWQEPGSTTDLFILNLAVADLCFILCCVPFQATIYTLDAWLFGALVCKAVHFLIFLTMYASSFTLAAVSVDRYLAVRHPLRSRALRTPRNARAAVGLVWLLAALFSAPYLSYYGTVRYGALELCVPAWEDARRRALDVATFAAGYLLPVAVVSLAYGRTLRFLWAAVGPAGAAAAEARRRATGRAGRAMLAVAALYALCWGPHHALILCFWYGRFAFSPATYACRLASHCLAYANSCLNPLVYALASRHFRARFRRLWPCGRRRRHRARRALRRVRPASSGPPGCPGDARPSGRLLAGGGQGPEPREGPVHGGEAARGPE
The assay is described as follows: SRE-luc luciferase assay, GALR3 L100F,Y103F. It counts as cell-based. Particulars: GALR3 L^100F, SRE-luc in HEK293 Gqi cells, ligand 6 h, mean ± S.E., SEM. The text has this:
For domain swapping between GALR2 and GALR3, individual cDNA fragments of interest were amplified by polymerase chain reaction (PCR) with Pfu polymerase (ELPIS Biotech, Daejeon, Korea) and two specific primers, one corresponding to the 5' or 3' end of the GALR2 or GALR3 cDNA and the other to the region of overlap between the two receptors. The two resulting fragments, one from GALR2 and the other from GALR3, were subjected to a second round of PCR to generate the chimeric cDNAs. To construct single, double-, triple-, pentuple-, hextuple-, and septuple-mutant receptors, amino acids of GALR3 were substituted for the amino acids at the corresponding positions in GALR2 using PCR-based site-directed mutagenesis. All of the chimeric constructs were cloned into the pcDNA3 expression vector at HindⅢ and XbaⅠ sites. The DNA sequences of the chimeras were verified by automatic sequencing. HEK293 cells stably expressing the Gqi construct, which allows induction of Gq-dependent signaling pathways upon activation of a Gi-coupled receptor [14, 30], were maintained in Dulbecco's Modified Eagle's Medium (DMEM) in the presence of 10% fetal bovine serum and 1% penicillin and streptomycin. For all transfections, 200 ng DNA (100 ng receptor and 100 ng SRE-luc) mixed with lipofectamine 2000 was applied to 60–80% confluent cells on a multi-well plate according to the manufacturer's instructions (Invitrogen, Carlsbad, CA). For luciferase assays, HEK293 Gqi cells were seeded on 48-well plates at a density of 2.5 × 10^4 cells/well one day before transfection. […] The luciferase activity in 50 μl cell extract was determined using a luciferase assay system according to the standard protocol for the Synergy 2 Multi-Mode Microplate Reader (BioTek, Winooski, VT, USA). […] The concentrations of agonists that induced half-maximal stimulation (EC50) were calculated using the GraphPad PRISM5 software (GraphPad software, Inc., San Diego, CA). […]

The target in the next assay is T2, GALR3 (Homo sapiens, UniProt O60755).
T2 sequence (O60755 1-368): T1 sequence (O60755 1-368 L100F/Y103F) with F100L, F103Y
Description: SRE-luc luciferase assay, WT GALR3. As to conditions: SRE-luc in HEK293 Gqi cells, ligand 6 h, mean ± SE, at least three independent experiments, SEM. More on the design: host or cells: HEK293 cells stably expressing Gqi. The format is cell-based. An excerpt: The pcDNA3.1 vector was purchased from Invitrogen (San Diego, CA, USA). The serum response element (SRE)-luciferase (SRE-luc) vector containing a single copy of the SRE (CCATATTAGG) conjugated with luciferase was purchased from Stratagene (La Jolla, CA, USA). The cDNAs for human GALR1, GALR2, and GALR3 were obtained from BRN SCIENCE, Inc. The cDNAs were inserted into the EcoRⅠ and XhoⅠ sites of pcDNA3.1.
HEK293 cells stably expressing the Gqi construct, which allows induction of Gq-dependent signaling pathways upon activation of a Gi-coupled receptor [14, 30], were maintained in Dulbecco's Modified Eagle's Medium (DMEM) in the presence of 10% fetal bovine serum and 1% penicillin and streptomycin. For all transfections, 200 ng DNA (100 ng receptor and 100 ng SRE-luc) mixed with lipofectamine 2000 was applied to 60–80% confluent cells on a multi-well plate according to the manufacturer's instructions (Invitrogen, Carlsbad, CA).
For luciferase assays, HEK293 Gqi cells were seeded on 48-well plates at a density of 2.5 × 10^4 cells/well one day before transfection. A mixture including 100 ng SRE-luc reporter construct, 100 ng expression plasmid, and lipofectamine 2000 reagent in diluted Opti-MEM (Gibco) was incubated at room temperature for 20 min and then added into each well according to the manufacturer's instructions (Invitrogen, CA, USA). Before exposure to the ligands, the cells were maintained in serum-free DMEM for 16–18 h. Approximately 48 h after transfection, the cells were treated with ligand for 6 h. The cells were then lysed by the addition of 100 μl lysis buffer. The luciferase activity in 50 μl cell extract was determined using a luciferase assay system according to the standard protocol for the Synergy 2 Multi-Mode Microplate Reader (BioTek, Winooski, VT, USA).
Data analysis was performed by non-linear regression with a sigmoidal dose-response curve. The concentrations of agonists that induced half-maximal stimulation (EC50) were calculated using the GraphPad PRISM5 software (GraphPad software, Inc., San Diego, CA). All data are presented as the mean ± standard error (SE) of at least three independent experiments.

Positions count from the first letter of the chain named. Ends that are not written are not given here.

With `CSCC[C@H](NC(=O)[C@H](C)NC(=O)[C@H](CCC(N)=O)NC(=O)[C@@H]1CCCN1C(=O)[C@@H](NC(=O)[C@H](Cc1c[nH]c2ccccc12)NC(=O)[C@@H](N)CC(N)=O)[C@@H](C)O)C(=O)N[C@@H](CC(C)C)C(=O)N[C@@H](Cc1ccc(O)cc1)C(=O)N[C@@H](CC(C)C)C(=O)N[C@@H](CCCCN)C(=O)NCC(=O)N[C@@H](C)C(=O)N[C@@H](CCC(N)=O)C(N)=O` [SPX, reference compound], the concentration for a half-maximal effect (EC50) in assay [1] stood at 42.7 ± 9.54 nM; at GALR3 it was 115 nM. The corresponding values for NWTPNAMLYLKGAQ-NH2 [N^5-SPX] are 174 ± 45 nM and 398 ± 96.1 nM. Turning to NWTPQAALYLKGAQ-NH2 [A^7-SPX], the half-maximal effective concentration (EC50) in assay [1] was determined as 155 ± 45.2 nM.

For NWTPQAMLYLKGPQ-NH2 [P^13-SPX], the concentration for a half-maximal effect (EC50) at GALR3 came out at 333 ± 55.7 nM.
